What was measured:
CXCR4 [1] = target: T1, CXCR4 (Homo sapiens, UniProt P61073); test: Saturation binding assay in PC3-CXCR4 cells; details: for Kd: saturation binding, PC3-CXCR4 cells; for Hill Slope, Saturation Binding Experiment: value ± SD
T1 construct: expressed in transfected cells; host or cells: PC3 (human prostate cancer) cells stably transduced with CXCR4
Description: To determine the dissociation constants, saturation binding assays were performed in the PC3-CXCR4 cells. The cells were plated as described above, and approximately 5 nM of the radioligand was added to each well. Then the corresponding non-radioactive ligand was added to give a final concentration in the range 0.001–10,000 nM. A total of eight concentrations were tested, and each concentration was tested in triplicate. The samples were washed and counted as described above. Non-specific binding was subtracted, and Kd values were determined by performing a nonlinear one site binding curve fit with equation y = (Bmax · x)/(Kd + x). Values are expressed as Kd ± standard deviation (Supplemental Data, Figure S8).

PC3-CXCR4 cells = test: Cell-associated activity in PC3-CXCR4 cells; format: cell-based, human; details: 1 h
Description: Maximum cell-associated activity was calculated by subtracting the cell uptake of the radioactive ligand at the highest non-radioactive ligand concentration of 10 µM (which we considered to be non-specific uptake/binding) from the cell uptake at the lowest non-radioactive ligand concentration of 10^−5 µM.

[2] = system: PC3-CXCR4 xenograft tumors; test: Biodistribution in mice bearing bilateral PC3-WT/PC3-CXCR4 xenograft tumors; format: in vivo, BALB/c mice; details: 1 h p.i.
Description: (§1) All animal studies were approved by the Institutional Animal Care and Use Committee of Weill Cornell Medicine (Protocol Number: 2015-0066) and were undertaken in accordance with the guidelines set forth by the USPHS Policy on Humane Care and Use of Laboratory Animals. Animals were housed under standard conditions in approved facilities with 12 h light/dark cycles. Food and water was provided ad libitum throughout the course of the studies. Hairless 6-to-8-week old male BALB/c inbred athymic nude mice (Jackson Laboratory, Bar Harbor, ME, USA) were inoculated bilaterally with 0.2 mL of a 1:1 mixture of 10^7 PC3-CXCR4 cells in PBS and Matrigel (Corning, Tewksbury, MA, USA) subcutaneously in the left shoulder and 0.2 mL of a 1:1 mixture of 10^7 PC3-WT cells in PBS and Matrigel subcutaneously in the right shoulder. Imaging and biodistribution studies were performed three weeks post-implantation, when tumors were approximately 100–300 mm^3.
(§2) For the biodistribution studies, tumor-bearing animals (n = 5/compound/time point) were injected intravenously with 50–100 μL of a 9% v/v EtOH/saline solution containing approximately 1.1 MBq of the radioligand. […] The mice were euthanized at 1 or 2 h p.i. and tissues including blood, heart, lungs, liver, small intestine, large intestine, stomach (with contents), spleen, pancreas, kidneys, muscle, bone, PC3-WT tumors, PC3-CXCR4 tumors, and tail were collected. All organs were weighed and placed in test tubes for counting in a Wizard^2 Gamma Counter (PerkinElmer, Waltham, MA, USA). For comparison, 1% injected activity standards were prepared and counted along with the tissue samples. The tails were counted to correct for any dose extravasation. Activity in each tissue was corrected for decay and for injected activity and expressed as percent injected dose per gram of tissue (%ID/g) ± standard error.

[3] = as above; format: in vivo, BALB/c mice; details: 1 h p.i.
Description: as §1, §2

CXCR4 [4] = target: T1, CXCR4; test: Competition binding assay vs [^68Ga]Pentixafor in PC3-CXCR4 cells; details: for IC50: vs 100 nM [^68Ga]Pentixafor, PC3-CXCR4 cells, 60 min 37 °C; for Hill Slope, Competitive Binding Experiment: vs [^68Ga]Pentixafor, value ± SD
Description: (§3) PC3-CXCR4 cells were plated in 12-well plates at a density of 500,000 cells per well and incubated for 48 h at 37 °C/5% CO2. Prior to the binding assay the cells were incubated in fresh media and 370–555 kBq of [^68Ga]Pentixafor or [^18F]RPS-544 was added to each well. The corresponding concentration of [^68Ga]Pentixafor in each well was 100 nM, and the concentration of [^18F]RPS-544 was approximately 5 pM. Then non-radioactive ligands were added to give a final ligand concentration in the range 0.001–10,000 nM. A total of eight concentrations were studied, and each concentration was tested in triplicate. The cells were incubated for 60 min at 37 °C/5% CO2. The media was removed under suction, the cells were washed with cold PBS 1X and detached and transferred to tubes for counting in 1 M NaOH. The cells were counted in a Wizard^2 Gamma Counter (PerkinElmer, Waltham, MA, USA). Non-specific binding was subtracted, and the IC50 values were determined by assuming a simple competitive binding interaction and fitting the data to a sigmoidal Hill plot in Origin 9.0 (OriginLab, Northampton, MA, USA). Potencies are expressed as IC50 ± standard deviation (Supplemental Data, Figure S7).

CXCR4 [5] = target: T1, CXCR4; test: Competition binding assay vs [^18F]RPS-544 in PC3-CXCR4 cells; details: approx. 5 pM [^18F]RPS-544; p = 0.85
Description: as §3

[6] = blocked by co-injection of 5 mg/kg AMD-3100

T1 sequence (P61073 whole entry): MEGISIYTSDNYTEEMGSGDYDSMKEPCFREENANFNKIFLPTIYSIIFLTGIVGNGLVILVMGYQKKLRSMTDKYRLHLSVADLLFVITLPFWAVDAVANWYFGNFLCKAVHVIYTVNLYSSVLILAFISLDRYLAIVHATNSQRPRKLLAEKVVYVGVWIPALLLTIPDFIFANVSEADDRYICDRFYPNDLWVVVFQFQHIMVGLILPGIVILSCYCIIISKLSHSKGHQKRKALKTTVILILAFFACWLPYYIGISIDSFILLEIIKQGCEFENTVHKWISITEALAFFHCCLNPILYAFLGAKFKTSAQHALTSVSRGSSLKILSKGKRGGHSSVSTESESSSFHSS

FCCn1cc(-c2cc(CNCc3ccccn3)ccc2CN2CCCNCCNCCCNCC2)nn1 [RPS-533]
Kd (CXCR4 [1]): 366 ± 70 nM
Hill Slope, Saturation Binding Experiment (CXCR4 [1]): 1.12 ± 0.05
Cell-Associated Activity (PC3-CXCR4 cells): 2.1 ± 0.4 %IA
Bone tissue activity [2]: 1.22±0.03 %ID/g
Heart tissue activity [2]: 0.57±0.05 %ID/g
Kidneys tissue activity [2]: 12.17 ± 0.78 %ID/g
Large Intestine tissue activity [2]: 0.23±0.02 %ID/g
Liver tissue activity [2]: 3.69±0.21 %ID/g
Lungs tissue activity [2]: 0.60±0.08 %ID/g
Muscle tissue activity [2]: 0.67±0.08 %ID/g
PC3-CXCR4 Tumor Uptake [2]: 1.93 ± 0.18 %ID/g
PC3-CXCR4 Tumor-to-Tissue Ratio Blood [2]: 6.9 ± 0.2
PC3-CXCR4 Tumor-to-Tissue Ratio Bone [2]: 1.4 ± 0.7
PC3-CXCR4 Tumor-to-Tissue Ratio Kidneys [2]: 0.2 ± 0.1
PC3-CXCR4 Tumor-to-Tissue Ratio Liver [2]: 0.5 ± 0.1
PC3-CXCR4 Tumor-to-Tissue Ratio Lungs [2]: 3.3 ± 0.4
PC3-CXCR4 Tumor-to-Tissue Ratio Muscle [2]: 2.2 ± 0.3
PC3-CXCR4 Tumor-to-Tissue Ratio PC3-WT [2]: 2.0 ± 0.4
PC3-WT tumor activity [2]: 0.91±0.19 %ID/g
Pancreas tissue activity [2]: 0.44±0.02 %ID/g
Small Intestine tissue activity [2]: 2.19±0.05 %ID/g
Spleen tissue activity [2]: 0.52±0.02 %ID/g
Stomach tissue activity [2]: 0.17±0.04 %ID/g
Blood tissue activity [3]: 0.30±0.06 %ID/g
IC50 (CXCR4 [4]): 356 ± 100 nM
Hill Slope, Competitive Binding Experiment (CXCR4 [4]): 1.07 ± 0.36
IC50 vs [^18F]RPS-544 compared with IC50 vs [^68Ga]Pentixafor (CXCR4 [5]): not significantly different

FCCn1cc(-c2cc(CN3CCCNCCNCCCNCC3)ccc2CN2CCCNCCNCCCNCC2)nn1 [RPS-545]
Kd (CXCR4 [1]): 515 ± 68 nM
Hill Slope, Saturation Binding Experiment (CXCR4 [1]): 2.01 ± 0.22
Cell-Associated Activity (PC3-CXCR4 cells): 0.8 ± 0.1 %IA
IC50 (CXCR4 [4]): 398 ± 41 nM
Hill Slope, Competitive Binding Experiment (CXCR4 [4]): 1.75 ± 0.33
IC50 vs [^18F]RPS-544 compared with IC50 vs [^68Ga]Pentixafor (CXCR4 [5]): not significantly different

FCCn1cc(CCNCc2ccc(CN3CCCNCCNCCCNCC3)cc2)nn1 [RPS-552]
Kd (CXCR4 [1]): 314 ± 48 nM
Hill Slope, Saturation Binding Experiment (CXCR4 [1]): 0.93 ± 0.14
Cell-Associated Activity (PC3-CXCR4 cells): 3.5 ± 0.1 %IA
Bone tissue activity [2]: 0.64±0.14 %ID/g
Heart tissue activity [2]: 0.13±0.03 %ID/g
Kidneys tissue activity [2]: 7.23 ± 2.66 %ID/g
Large Intestine tissue activity [2]: 0.43±0.10 %ID/g
Liver tissue activity [2]: 4.36±0.24 %ID/g
Lungs tissue activity [2]: 0.50±0.04 %ID/g
Muscle tissue activity [2]: 0.15±0.04 %ID/g
PC3-CXCR4 Tumor Uptake [2]: 2.52 ± 0.11 %ID/g
PC3-CXCR4 Tumor-to-Tissue Ratio Blood [2]: 11.9 ± 0.1
PC3-CXCR4 Tumor-to-Tissue Ratio Bone [2]: 4.0 ± 0.2
PC3-CXCR4 Tumor-to-Tissue Ratio Kidneys [2]: 0.3 ± 0.3
PC3-CXCR4 Tumor-to-Tissue Ratio Liver [2]: 0.6 ± 0.1
PC3-CXCR4 Tumor-to-Tissue Ratio Lungs [2]: 5.0 ± 0.1
PC3-CXCR4 Tumor-to-Tissue Ratio Muscle [2]: 16.7 ± 0.1
PC3-CXCR4 Tumor-to-Tissue Ratio PC3-WT [2]: 2.5 ± 0.3
PC3-WT tumor activity [2]: 1.00±0.23 %ID/g
Pancreas tissue activity [2]: 0.26±0.05 %ID/g
Small Intestine tissue activity [2]: 0.54±0.06 %ID/g
Spleen tissue activity [2]: 0.92±0.08 %ID/g
Stomach tissue activity [2]: 0.14±0.07 %ID/g
Bone tissue activity [2, 6]: 0.31±0.07 %ID/g
Heart tissue activity [2, 6]: 0.18±0.08 %ID/g
Kidneys tissue activity [2, 6]: 4.41±1.01 %ID/g
Large Intestine tissue activity [2, 6]: 0.22±0.03 %ID/g
Liver tissue activity [2, 6]: 3.15±0.70 %ID/g
Lungs tissue activity [2, 6]: 0.49±0.09 %ID/g
Muscle tissue activity [2, 6]: 0.45±0.67 %ID/g
PC3-CXCR4 tumor activity [2, 6]: 1.20±0.43 %ID/g
PC3-WT tumor activity [2, 6]: 0.85±0.21 %ID/g
Pancreas tissue activity [2, 6]: 0.25±0.04 %ID/g
Small Intestine tissue activity [2, 6]: 0.80±0.11 %ID/g
Spleen tissue activity [2, 6]: 0.70±0.11 %ID/g
Stomach tissue activity [2, 6]: 0.20±0.20 %ID/g
Blood tissue activity [3]: 0.21±0.07 %ID/g
Blood tissue activity [3, 6]: 0.27±0.06 %ID/g
IC50 (CXCR4 [4]): 515 ± 68 nM
Hill Slope, Competitive Binding Experiment (CXCR4 [4]): 1.18 ± 0.07

— paper PMC6514812, “[^18F]Fluoroethyltriazolyl Monocyclam Derivatives as Imaging Probes for the Chemokine Receptor CXCR4” (Molecules, 2019)
